Measured values reported in patent publication US12077503B2, “Substituted cyclic amides and their use as herbicides” (FMC CORPORATION, priority 2015, dated 2024).

Experiments:
Type in all cases: in vivo
corn (Zea mays) [1] = test: Test G Post-Emergence Protocol; conditions: Zea mays, post-emergence, 312 h, read-out: Corn damage rating
Method in brief: (§1)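 Sow in soil; grow 8 d (24/16 °C, 14 h light, 65% humidity); spray 15.625/62.5/250 g/ha in acetone:water 50:50 + 0.5% Tween 20; grow on, water twice daily; score damage 0–100 at 13 d.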

[2] = test system: redroot pigweed (Amaranthus retroflexus); test: Test G Post-Emergence Protocol; conditions: Amaranthus retroflexus, post-emergence, 312 h, read-out: Pigweed, Redroot damage rating
Method in brief: as §1

[3] = test system: ivy-leaved morning glory (Ipomoea hederacea); test: Test G Post-Emergence Protocol; conditions: Ipomoea, post-emergence, 312 h, read-out: Morningglory, Ivy-leaved damage rating
Method in brief: as §1

[4] = test system: giant foxtail (Setaria faberi); test: Test G Post-Emergence Protocol; conditions: Setaria faberi, post-emergence, 312 h, read-out: Foxtail, Giant damage rating
Method in brief: as §1

[5] = test system: barnyardgrass (Echinochloa crus-galli); test: Test G Post-Emergence Protocol; conditions: Echinochloa crus-galli, post-emergence, 312 h, read-out: Barnyardgrass damage rating
Method in brief: as §1

[6] = test system: velvetleaf (Abutilon theophrasti); test: Test G Post-Emergence Protocol; conditions: Abutilon theophrasti, post-emergence, 312 h, read-out: Velvetleaf damage rating
Method in brief: as §1

corn (Zea mays) [7] = test: Test G Pre-Emergence Protocol; conditions: Zea mays, pre-emergence, 312 h, evaluated after 13 days
Method in brief: (§2)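 Seeds were sown in standard soil and kept one day in a glasshouse (24/16° C day/night, 14 h light, 65% humidity), then sprayed with compound in acetone/water (50:50) containing 0.5% Tween 20 at 15.625, 62.5 or 250 g/ha. Damage was scored after 13 days (0 = none, 100 = total).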

[8] = test system: redroot pigweed (Amaranthus retroflexus); test: Test G Pre-Emergence Protocol; conditions: Amaranthus retroflexus, pre-emergence, 312 h, evaluated after 13 days
Method in brief: as §2

[9] = test system: ivy-leaved morning glory (Ipomoea hederacea); test: Test G Pre-Emergence Protocol; conditions: Ipomoea, pre-emergence, 312 h, evaluated after 13 days
Method in brief: as §2

[10] = test system: giant foxtail (Setaria faberi); test: Test G Pre-Emergence Protocol; conditions: Setaria faberi, pre-emergence, 312 h, evaluated after 13 days
Method in brief: as §2

[11] = test system: barnyardgrass (Echinochloa crus-galli); test: Test G Pre-Emergence Protocol; conditions: Echinochloa crus-galli, pre-emergence, 312 h, evaluated after 13 days
Method in brief: as §2

[12] = test system: velvetleaf (Abutilon theophrasti); test: Test G Pre-Emergence Protocol; conditions: Abutilon theophrasti, pre-emergence, 312 h, evaluated after 13 days
Method in brief: as §2

[13] = 15.625 g ai/ha, evaluated after 13 days (100=total damage to plant; 0=no damage to plant)
[14] = 62.5 g ai/ha, evaluated after 13 days, 100=total damage to plant, 0=no damage to plant
[15] = 250 g ai/ha, evaluated after 13 days, 100=total damage to plant, 0=no damage to plant

CN1CCC(NC(=O)[C@H]2C(=O)N(C)C[C@@H]2c2ccc(C(F)(F)F)cc2)C1=O (mixture of isomers) [Compound 1673]
plant injury at 15.625 g/ha (corn (Zea mays) [1]; [13]): 0%
plant injury at 62.5 g/ha (corn (Zea mays) [1]; [14]): 0%
plant injury at 250 g/ha (corn (Zea mays) [1]; [15]): 0%
pest or weed control at 15.625 g/ha [2, 13]: 0%
pest or weed control at 62.5 g/ha [2, 14]: 0%
pest or weed control at 250 g/ha [2, 15]: 0%
pest or weed control at 15.625 g/ha [3, 13]: 0%
pest or weed control at 62.5 g/ha [3, 14]: 0%
pest or weed control at 250 g/ha [3, 15]: 0%
pest or weed control at 15.625 g/ha [4, 13]: 0%
pest or weed control at 62.5 g/ha [4, 14]: 0%
pest or weed control at 250 g/ha [4, 15]: 10%
pest or weed control at 15.625 g/ha [5, 13]: 0%
pest or weed control at 62.5 g/ha [5, 14]: 0%
pest or weed control at 250 g/ha [5, 15]: 0%
pest or weed control at 15.625 g/ha [6, 13]: 0%
pest or weed control at 62.5 g/ha [6, 14]: 0%
pest or weed control at 250 g/ha [6, 15]: 0%
plant injury at 15.625 g/ha (corn (Zea mays) [7]; 15.625 g ai/ha, read-out: Corn damage rating (100=total damage to plant; 0=no damage to plant)): 0%
plant injury at 62.5 g/ha (corn (Zea mays) [7]; 62.5 g ai/ha, 100=total damage to plant, 0=no damage to plant, read-out: Corn damage rating): 0%
plant injury at 250 g/ha (corn (Zea mays) [7]; 250 g ai/ha, read-out: Corn damage rating (100=total damage to plant; 0=no damage to plant)): 0%
pest or weed control at 15.625 g/ha ([8]; 15.625 g ai/ha, read-out: Pigweed, Redroot damage rating (100=total damage to plant; 0=no damage to plant)): 0%
pest or weed control at 62.5 g/ha ([8]; 62.5 g ai/ha, 100=total damage to plant, 0=no damage to plant, read-out: Pigweed, Redroot damage rating): 0%
pest or weed control at 250 g/ha ([8]; 250 g ai/ha, read-out: Pigweed, Redroot damage rating (100=total damage to plant; 0=no damage to plant)): 0%
pest or weed control at 15.625 g/ha ([9]; 15.625 g ai/ha, read-out: Morningglory, Ivy-leaved damage rating (100=total damage to plant; 0=no damage to plant)): 0%
pest or weed control at 62.5 g/ha ([9]; 62.5 g ai/ha, 100=total damage to plant, 0=no damage to plant, read-out: Morningglory, Ivy-leaved damage rating): 0%
pest or weed control at 250 g/ha ([9]; 250 g ai/ha, read-out: Morningglory, Ivy-leaved damage rating (100=total damage to plant; 0=no damage to plant)): 0%
pest or weed control at 15.625 g/ha ([10]; 15.625 g ai/ha, read-out: Foxtail, Giant damage rating (100=total damage to plant; 0=no damage to plant)): 0%
pest or weed control at 62.5 g/ha ([10]; 62.5 g ai/ha, 100=total damage to plant, 0=no damage to plant, read-out: Foxtail, Giant damage rating): 0%
pest or weed control at 250 g/ha ([10]; 250 g ai/ha, read-out: Foxtail, Giant damage rating (100=total damage to plant; 0=no damage to plant)): 0%
pest or weed control at 15.625 g/ha ([11]; 15.625 g ai/ha, read-out: Barnyardgrass damage rating (100=total damage to plant; 0=no damage to plant)): 0%
pest or weed control at 62.5 g/ha ([11]; 62.5 g ai/ha, 100=total damage to plant, 0=no damage to plant, read-out: Barnyardgrass damage rating): 0%
pest or weed control at 250 g/ha ([11]; 250 g ai/ha, read-out: Barnyardgrass damage rating (100=total damage to plant; 0=no damage to plant)): 0%
pest or weed control at 15.625 g/ha ([12]; 15.625 g ai/ha, read-out: Velvetleaf damage rating (100=total damage to plant; 0=no damage to plant)): 0%
pest or weed control at 62.5 g/ha ([12]; 62.5 g ai/ha, 100=total damage to plant, 0=no damage to plant, read-out: Velvetleaf damage rating): 0%
pest or weed control at 250 g/ha ([12]; 250 g ai/ha, read-out: Velvetleaf damage rating (100=total damage to plant; 0=no damage to plant)): 0%
